This assay deals with T1, human glucagon receptor (Homo sapiens, UniProt P47871).
T1 construct: expressed in transfected cells; host or cells: BHK cells (parent BHK570, CRE luciferase clone BHK/KZ10-20-48), clone pLJ6'-4-25
As to the kind of experiment: Glucagon receptor binding, 125I-glucagon displacement SPA on isolated membranes. As to conditions: displacement of 125I-glucagon from membranes; read-out: IC50 GlucR. The gist of the method:
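Displacement IC50 derived by non-linear regression of SPA counts after 2 h, 25 °C incubation of compound with [125I]-glucagon (480 pM solution, 25 μl) and membranes of hGCGR-transfected BHK cells. Buffer was HEPES pH 7.4 with ovalbumin; serum albumin was held at 0.001% max or 0.2% final.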
On the technique in general: Displacement assays read how much labelled ligand stays bound in the presence of the test substance.

Numbered stars: 1 amine (or outer) side, 2 acyl side, 3 side chain; on linkers, the order of the positions; unused ones are H or OH. Square brackets hold non-standard residues; d marks the D form. Side chains are listed from the residue outwards. Peptide text beside a SMILES is read from it. * marks the point of attachment. C18 diacid = O=C(O)CCCCCCCCCCCCCCCCC(=O)*; γGlu = O=C(O)[C@H](CCC(=O)[*:2])N[*:1]; Ac4c = NC1(C(=O)O)CCC1

T1 sequence (P47871 26-477): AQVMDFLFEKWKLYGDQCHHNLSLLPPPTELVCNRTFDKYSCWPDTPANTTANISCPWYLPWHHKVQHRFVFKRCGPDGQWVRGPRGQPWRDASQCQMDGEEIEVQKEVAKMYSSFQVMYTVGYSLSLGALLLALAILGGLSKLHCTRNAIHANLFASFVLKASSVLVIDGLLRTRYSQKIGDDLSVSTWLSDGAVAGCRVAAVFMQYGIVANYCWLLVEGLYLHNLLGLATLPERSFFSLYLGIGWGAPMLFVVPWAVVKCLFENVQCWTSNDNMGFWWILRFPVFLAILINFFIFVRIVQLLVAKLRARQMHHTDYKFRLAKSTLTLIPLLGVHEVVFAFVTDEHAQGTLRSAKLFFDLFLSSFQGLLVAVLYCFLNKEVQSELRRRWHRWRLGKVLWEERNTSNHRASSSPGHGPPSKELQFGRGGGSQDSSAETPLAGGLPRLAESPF

Regarding `CC(C)C[C@H](NC(=O)[C@H](Cc1ccc(O)cc1)NC(=O)[C@H](CCCCN)NC(=O)[C@H](CO)NC(=O)[C@H](CC(C)C)NC(=O)[C@H](CC(=O)O)NC(=O)[C@H](CO)NC(=O)[C@@H](NC(=O)[C@H](Cc1ccccc1)NC(=O)[C@@H](NC(=O)CNC(=O)[C@H](CCC(N)=O)NC(=O)C1(NC(=O)[C@@H](N)Cc2c[nH]cn2)CCC1)[C@@H](C)O)[C@@H](C)O)C(=O)N[C@@H](CCC(=O)O)C(=O)N[C@@H](CO)C(=O)N[C@@H](CCCCN)C(=O)N[C@@H](CCCNC(=N)N)C(=O)N[C@@H](C)C(=O)N[C@@H](CCCNC(=N)N)C(=O)N[C@@H](CCC(=O)O)C(=O)N[C@@H](Cc1ccccc1)C(=O)N[C@H](C(=O)N[C@@H](CCC(N)=O)C(=O)N[C@@H](Cc1c[nH]c2ccccc12)C(=O)N[C@@H](CC(C)C)C(=O)N[C@@H](CC(C)C)C(=O)N[C@@H](CCCCNC(=O)CC[C@H](NC(=O)CC[C@H](NC(=O)[C@H](CO)NC(=O)[C@H](CCC(=O)O)NC(=O)[C@H](CO)NC(=O)CC[C@H](NC(=O)CC[C@H](NC(=O)CCCCCCCCCCCCCCCCC(=O)O)C(=O)O)C(=O)O)C(=O)O)C(=O)O)C(=O)N[C@H](C(N)=O)[C@@H](C)O)C(C)C` [Example 68, N^ε28-[(4S)-4-carboxy-4-[[(4S)-4-carboxy-4-[[(2S)-2-[[(2S)-4-carboxy-2-[[(2S)-2-[[(4S)-4-carboxy-4-[[(4S)-4-carboxy-4-(17-carboxyheptadecanoylamino)butanoyl]amino]butanoyl]amino]-3-hydroxypropanoyl]amino]butanoyl]amino]-3-hydroxypropanoyl]amino]butanoyl]amino]butanoyl]-[Acb2,Leu10,Glu15,Lys17,Arg20,Glu21,Leu27,Lys28]-Glucagon amide] (H-H[Ac4c]QGTFTSDLSKYLESKRAREFVQWLLK([γGlu-γGlu-Ser-Glu-Ser-γGlu-γGlu-C18 diacid])T-NH2; N-terminus assumed), the IC50 stood at 0.6 nM.

A word on the IC50: it is the concentration needed to halve the response being measured.
